Reference: patent US8742082B2, “Compositions and methods for influencing satiety, lipid metabolism, and fat utilization” (Nestec S.A., priority 2008, dated 2014)

How the values were obtained:
Format in all cases: in vivo
Leptin = assay: Real-time PCR gene expression in peripheral tissues: leptin; conditions: C57bl6j mice, high fat diet, 100 mg/kg/body weight in diet, 5 weeks
Description: (§1) The expression of 45 genes was measured by real-time PCR in peripheral tissues to identify genes that were differentially expressed in response to oral administration of oleoylethanolamide (OEA) or a non-hydrolysable OEA analog (KDS 5104), which affect satiety, lipid metabolism, fat utilization, food intake, and body fat mass.
(§2) Animals, diet, and experimental design. Adult male C57bl6j mice purchased at 8 weeks of age were individually housed and maintained ad libitum on high fat diet and water for 2 weeks. Seven mice were randomly allocated in 3 groups and fed with a high fat diet (lipids represented 50% of daily energy) for 2 weeks. For one kilogram, the composition of the high fat diet was: 235 g casein, 201 g saccharose, 3.5 g L-cystine, 85 g starch, 116 g maltodextrin, 60 g cellulose, 12 g vitamins mix (AIN-93M, UPAE, Jouy-en-Josas, France), 51.5 g mineral mix (AIN-93Vx, UPAE, Jouy-en-Josas, France), and 236 g lard. Then, either OEA or KDS 5104 was added to the diet at a concentration of 100 mg/kg/body weight. The mice were kept under treatment for 5 weeks.
(§3) Sampling. At the end of the experimental period, mice were sacrificed by blood drawing (cardiac puncture) after anesthesia with isoflurane. Plasma was obtained by centrifugation (1,000 g for 10 min at 4° C.). Mesenteric, epididymal, inguinal and peritoneal adipose depots, as well as liver, stomach, small intestine mucosa, pancreas, and gastrocnemian muscle were removed and frozen into liquid nitrogen. Plasma, urine, feces, and organ samples were kept at −80° C. until analysis.
(§4) RNA extraction and gene expression. Total RNA from liver, intestine mucous membrane, adipose tissues, gastrocnemian muscle, pancreas and stomach were extracted with TRIzol reagent (Invitrogen, Carlsbad, USA) according to the manufacturer's instruction. The RNA concentration was determined on nanodrop from the absorbance at 260 nm. Retro-transcription PCRs to synthesize cDNA were performed using an Applied Biosystem Thermal Cycler 2720 and Superscript II (Invitrogen, Carlsbad, USA) according to manufacturer's protocol. Real-time quantitative PCR (RT-qPCR) were performed on cDNA obtained as described above using a high through put system (Biomek 3000, Beckman & Coulter, Fullerton, USA) and a Lightcycler 480 (Roche/Hitachi, Basel, Switzerland) with SYBR Green Master mix+kit (Eurogentec, Philadelphia, USA). Primers for the selected genes were generated using online informatics assistance from the Lightcycler manufacturer (Roche). Databases used to identify the genes were (1) the NCBI database (GenBank) and (2) the IHOP (Information Hyperlinked over Protein) database (www.ihop-net.org/UniPub/iHOP/bng/). Values were expressed as ratio of RNA levels relative to control mice (diets with 0 mg of OEA/kg/body weight) using ΔΔ(Ct) (Livak K J & Schmittgen T D, 2001, Methods 25:402-8). Gene expression of the following genes was measured (abbreviation and GenBank Accession shown in parentheses).
(§5) Statistical analysis. […] Statistical analysis of physiological parameters and gene expression data was performed by one-way ANOVA on Statview software (SAS Institute, Cary, USA). Daily food intake was analyzed using two-way ANOVA on Statview software. Statistical significance was set up at the P<0.05 level, the P<0.01 level and the P<0.001 level. For statistical analysis of the gene expression data, values were calculated relative to 18S expression for each mouse and gene.

CPT1 = assay: Real-time PCR gene expression in peripheral tissues: CPT1; conditions: C57bl6j mice, high fat diet, 100 mg/kg/body weight in diet, 5 weeks
Description: as §1, §2, §3, §4, §5

Adiponectin = assay: Real-time PCR gene expression in peripheral tissues: adiponectin; conditions: C57bl6j mice, high fat diet, 100 mg/kg/body weight in diet, 5 weeks
Description: as §1, §2, §3
as §4, with “Retro-transcription PCRs to synthesize cDNA were performed using an Applied Biosystem Thermal Cycler 2720 and Superscript II (Invitrogen, Carlsbad, USA) according to manufacturer's protocol.” left out, “Primers for the selected genes were generated using online informatics assistance from the Lightcycler manufacturer (Roche). Databases used to identify the genes were (1) the NCBI database (GenBank) and (2) the IHOP (Information Hyperlinked over Protein) database (www.ihop-net.org/UniPub/iHOP/bng/).” left out
(§6) Statistical analysis. […] Daily food intake was analyzed using two-way ANOVA on Statview software. […] For statistical analysis of the gene expression data, values were calculated relative to 18S expression for each mouse and gene.

[1] = system: Sterol regulatory element binding protein-c 1 (SREBP 1c); assay: Real-time PCR gene expression in peripheral tissues: SREBP1c; conditions: C57bl6j mice, high fat diet, 100 mg/kg/body weight in diet, 5 weeks
Description: as §1, §2, §3, §4, §5

[2] = system: Fasting induced adipocyte factor (Fiaf); assay: Real-time PCR gene expression in peripheral tissues: Fiaf; conditions: C57bl6j mice, high fat diet, 100 mg/kg/body weight in diet, 5 weeks
Description: as §1, §2, §3, §4, §5

[3] = system: Glucose 6-phosphatase (G6P); assay: Real-time PCR gene expression in peripheral tissues: G6P; conditions: liver; C57bl6j mice, high fat diet, 100 mg/kg/body weight in diet, 5 weeks
Description: as §1
(§7) Animals, diet, and experimental design. Adult male C57bl6j mice purchased at 8 weeks of age were individually housed and maintained ad libitum on high fat diet and water for 2 weeks. Seven mice were randomly allocated in 3 groups and fed with a high fat diet (lipids represented 50% of daily energy) for 2 weeks. […]
(§8) RNA extraction and gene expression. […] The RNA concentration was determined on nanodrop from the absorbance at 260 nm. […] Real-time quantitative PCR (RT-qPCR) were performed on cDNA obtained as described above using a high through put system (Biomek 3000, Beckman & Coulter, Fullerton, USA) and a Lightcycler 480 (Roche/Hitachi, Basel, Switzerland) with SYBR Green Master mix+kit (Eurogentec, Philadelphia, USA). […] Values were expressed as ratio of RNA levels relative to control mice (diets with 0 mg of OEA/kg/body weight) using ΔΔ(Ct) (Livak K J & Schmittgen T D, 2001, Methods 25:402-8). Gene expression of the following genes was measured (abbreviation and GenBank Accession shown in parentheses). […]

[4] = system: overall gene expression pattern; assay: Multivariate statistical analysis of overall gene expression pattern; conditions: C57bl6j mice, high fat diet, 100 mg/kg/body weight in diet, 5 weeks
Description: as §1, §7, §8

[5] = system: Glucose transporter 4 (Glut 4); assay: Real-time PCR gene expression in peripheral tissues: Glut 4; conditions: muscle; C57bl6j mice, high fat diet, 100 mg/kg/body weight in diet, 5 weeks
Description: as §1, §7, §8

[6] = system: Oleoylethanolamide synthase (OEA synthase); assay: Real-time PCR gene expression in peripheral tissues: OEA synthase; conditions: proximal intestine; C57bl6j mice, high fat diet, 100 mg/kg/body weight in diet, 5 weeks
Description: as §1, §7, §8

Ghrelin = assay: Real-time PCR gene expression in peripheral tissues: ghrelin; conditions: stomach; C57bl6j mice, high fat diet, 100 mg/kg/body weight in diet, 5 weeks
Description: as §1, §7, §8

AcylCoA oxidase (ACO) = assay: Real-time PCR gene expression in peripheral tissues: ACO; conditions: liver; C57bl6j mice, high fat diet, 100 mg/kg/body weight in diet, 5 weeks
Description: as §1, §7, §8

Visfatin = assay: Real-time PCR gene expression in peripheral tissues: visfatin; conditions: C57bl6j mice, high fat diet, 100 mg/kg/body weight in diet, 5 weeks
Description: as §1, §2, §3
RNA extraction and gene expression. Total RNA from liver, intestine mucous membrane, adipose tissues, gastrocnemian muscle, pancreas and stomach were extracted with TRIzol reagent (Invitrogen, Carlsbad, USA) according to the manufacturer's instruction. The RNA concentration was determined on nanodrop from the absorbance at 260 nm. […] Real-time quantitative PCR (RT-qPCR) were performed on cDNA obtained as described above using a high through put system (Biomek 3000, Beckman & Coulter, Fullerton, USA) and a Lightcycler 480 (Roche/Hitachi, Basel, Switzerland) with SYBR Green Master mix+kit (Eurogentec, Philadelphia, USA). […] Values were expressed as ratio of RNA levels relative to control mice (diets with 0 mg of OEA/kg/body weight) using ΔΔ(Ct) (Livak K J & Schmittgen T D, 2001, Methods 25:402-8). Gene expression of the following genes was measured (abbreviation and GenBank Accession shown in parentheses).
as §6

[7] = system: G protein coupled receptor 119 (GPR 119); assay: Real-time PCR gene expression in peripheral tissues: GPR119; conditions: proximal intestine; C57bl6j mice, high fat diet, 100 mg/kg/body weight in diet, 5 weeks
Description: as §1, §7, §8

[8] = system: Fatty Acid Synthase (FAS 1); assay: Real-time PCR gene expression in peripheral tissues: FAS; conditions: liver; C57bl6j mice, high fat diet, 100 mg/kg/body weight in diet, 5 weeks
Description: as §1, §7, §8

CCCCCCCC/C=C\CCCCCCCC(=O)N[C@H](C)CO [KDS 5104, (Z)—(R)-9-octadecenamide, N-(2-hydroxyethyl, 1-methyl)]
leptin at per, ratio of RNA levels relative to control mice (Leptin; peritoneal adipose tissue): −1.32
leptin s, ratio of RNA levels relative to control mice (Leptin; stomach): −1.02
CPT1 l, ratio of RNA levels relative to control mice (CPT1; liver): 1.06
CPT1 p, ratio of RNA levels relative to control mice (CPT1; pancreas): 1.80
CPT1 i, ratio of RNA levels relative to control mice (CPT1; proximal intestine): 1.63
adiponectin at ep, ratio of RNA levels relative to control mice (Adiponectin; epidydimal adipose tissue): −1.02
adiponectin at per, ratio of RNA levels relative to control mice (Adiponectin; peritoneal adipose tissue): −1.52
SREBP1c at ep, ratio of RNA levels relative to control mice ([1]; epidydimal adipose tissue): 1.00
SREBP1c l, ratio of RNA levels relative to control mice ([1]; liver): 1.47
SREBP1c at per, ratio of RNA levels relative to control mice ([1]; peritoneal adipose tissue): −1.35
Fiaf at ep, ratio of RNA levels relative to control mice ([2]; epidydimal adipose tissue): 0.46
Fiaf at per, ratio of RNA levels relative to control mice ([2]; peritoneal adipose tissue): 2.79
Fiaf i, ratio of RNA levels relative to control mice ([2]; proximal intestine): 0.68
G6P l, ratio of RNA levels relative to control mice [3]: 2.12
overall gene expression pattern (multivariate statistical analysis) [4]: significant shift
Glut 4 m, ratio of RNA levels relative to control mice [5]: 5.70
OEA synthase i, ratio of RNA levels relative to control mice [6]: −1.36
ghrelin s, ratio of RNA levels relative to control mice (Ghrelin): 1.04
ACO l, ratio of RNA levels relative to control mice (AcylCoA oxidase (ACO)): 1.15
visfatin at ep, ratio of RNA levels relative to control mice (Visfatin; epidydimal adipose tissue): −1.08
visfatin at per, ratio of RNA levels relative to control mice (Visfatin; peritoneal adipose tissue): −1.10
GPR119 i, ratio of RNA levels relative to control mice [7]: 4.95
FAS l, ratio of RNA levels relative to control mice [8]: 2.47
